This assay deals with T1, PAF receptor (Homo sapiens, UniProt P25105).
T1 construct: from tissue; host or cells: human platelets (platelet concentrates from a hospital blood bank), lysed platelet membranes
Kind of assay: Inhibition of [^3 H]-PAF Receptor Binding (human platelet plasma membrane). The note with it: 0.5 nM [^3 H]-PAF, 0° C., 1 hour incubation, pH 7.0. As to the method:
Inhibition of [^3 H]-PAF Receptor Binding
The inhibition of [^3 H]-PAF binding to human platelet plasma membrane by compounds of general formula I was determined by isotopic labelling and filtration techniques. Platelet concentrates were obtained from a hospital blood bank. These platelet concentrates (500-2500 mi.) were centrifuged at 800 rpm for 10 minutes in a SORVALL RC3B centrifuge to remove the red blood cells present. (The word SORVALL is a trade mark.) The supernatant was subsequently centrifuged at 3,000 rpm in a SORVALL RC3B centrifuge to pellet the platelets present. The platelet rich pellets were resuspended in a minimum volume of buffer (150 mM NaCl, 10 mM Tris, 2 mM EDTA, pH 7.5) and layered onto Ficoll-Paque gradients, 9 ml platelet concentrate to 2 ml Ficoll, and centrifuged at 1,900 rpm for 15 minutes in a SORVALL RT6000 centrifuge. This step removes the residual red blood cells and other nonspecific material such as lymphocytes from the preparation. The platelets which form a band between the plasma and the Ficoll were removed, resuspended in the above buffer and centrifuged at 3,000 rpm for 10 minutes in a SORVALL RT6000 centrifuge. The pelleted platelets were resuspended in buffer (10 mM Tris, 5 mM MgCl2, 2 mM EDTA, pH 7.0), snap freezed in liquid N2 and allowed to thaw slowly at room temperature in order to lyse the platelets. The latter step was repeated at least 3 times to ensure proper lysis. The lysed platelets were centrifuged at 3,000 rpm for 10 minutes in a SORVALL RT6000 centrifuge and resuspended in buffer. The latter step was repeated twice in order to remove any cytoplasmic proteins which may hydrolyse the platelet activating factor (PAF) receptor. The prepared platelet membranes may be stored at -70° C. After thawing the prepared membranes were centrifuged in a SORVALL RT6000 at 3,000 rpm for 10 minutes and resuspended in assay buffer.
The assay was conducted by preparing a series of Tris-buffered solutions of the selected antagonist of predetermined concentrations. […] Each washed residue was dried under vacuum on a sampling manifold and placed into vials containing 20 ml of OPTIPHASE MP scintillation fluid and the radioactivity counted in a liquid scintillation counter. (The word OPTIPHASE is a trade mark.) Defining the counts for total binding with antagonist from a test sample as "TBA"; the counts for total binding from the control sample C1 as "TB"; and the counts for nonspecific binding from the control sample C2 as "NSB", the percent inhibition of each test antagonist can be determined by the following equation: […]

Each structure is given as a SMILES string.

T1 sequence (P25105 whole entry): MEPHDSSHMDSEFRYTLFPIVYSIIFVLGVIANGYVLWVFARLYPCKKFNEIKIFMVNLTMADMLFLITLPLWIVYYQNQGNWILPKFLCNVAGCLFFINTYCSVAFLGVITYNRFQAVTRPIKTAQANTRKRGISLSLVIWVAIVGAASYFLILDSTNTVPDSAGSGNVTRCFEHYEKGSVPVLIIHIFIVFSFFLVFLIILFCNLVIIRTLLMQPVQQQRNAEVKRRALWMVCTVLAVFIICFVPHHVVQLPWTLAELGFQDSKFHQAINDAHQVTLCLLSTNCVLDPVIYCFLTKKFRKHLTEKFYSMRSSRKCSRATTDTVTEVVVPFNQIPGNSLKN

For the molecule `CCOC(=O)[C@H](CC(C)C)NS(=O)(=O)c1ccc(Cn2ccnc2-c2ccccc2)cc1` [Example 1, N-4-(1H-2-Phenylimidazolylmethyl)phenylsulphonyl-L-leucine ethyl ester], the IC50 was 7 nM.

`CCCCc1nc(Cl)c(CO)n1Cc1ccc(S(=O)(=O)N[C@@H](CC(C)C)C(=O)OCC)cc1` [Example 4, N-4-(1H-2-Butyl-4-chloro-5-hydroxymethylimidazolylmethyl)phenylsulphonyl-L-leucine ethyl ester] registered an IC50 of 5 nM.

Regarding `CCc1nccn1Cc1ccc(S(=O)(=O)N(C)[C@@H](CC(C)C)C(=O)OC)cc1` [Example 43, N-Methyl-N-4-(1H-2-ethylimidazolylmethyl)phenylsulphonyl-L-leucine methyl ester], the concentration for half-maximal inhibition (IC50) turned out to be 5 nM.

In turn, `CCOC[C@H](CC(C)C)NS(=O)(=O)c1ccc(Cn2cnc3cccnc32)cc1` [Example 45A, N-4-(3H-Imidazo[4,5-b]pyridylmethyl)phenylsulphonyl-L-leucinyl ethyl ether] returned a 50% inhibitory concentration (IC50) of 20 nM.

The term IC50 denotes the midpoint of a concentration-inhibition curve.

The values are drawn from patent US5741794A, “Heterocyclic sulfonamide derivatives as antagonists of PAF and angiotensin II” (British Biotech Pharmaceuticals Limited, priority 1992, dated 1998).
